Assay results taken from patent US5643884A, “Lupane triterpenoid derivatives” (Glycomed Incorporated, priority 1993, dated 1997).
In brackets after ≈: the same amount, converted by molar mass.

How the values were obtained:
[1] = test system: P-388 lymphocytic leukemia cells; details: Choi et al, Planta Medica 1988; cited from earlier work
[2] = test system: ornithine decarboxylase; details: Yasukawa et al. 1991; cited from earlier work
[3] = test system: 5-lipoxygenase; details: Sotomatsu et al. 1959; Inoue et al. 1986; cited from earlier work
[4] = test system: E-selectin; test: cancer cell adhesion to E-selectin (E-selectin chimera binding to fixed LS174T colon carcinoma cells); assay type: cell-based; details: lowest concentration from serial two-fold dilutions inhibiting by 50% or more, FIGS. 3 and 4
Method: The mixture is rotated briskly on a rotary platform at room temperature for about 30-60 minutes. Particulate matter is removed by centrifugation, and the soluble fraction is transferred onto 96-well microtiter plates containing glutaraldehyde fixed LS174T colon carcinoma cells. This cell line is known to adhere to E-selectin. After 60 minutes at 37° C., plates are washed and E-selectin chimera bound to cells is quantified by addition of pNPP substrate in 1M diethanolamine buffer containing 0.1 mg/ml MgCl2 at pH 9.8. Plates are developed in the dark and read at 405 nm. The IC50 values are calculated and are the lowest concentrations from serial two-fold dilutions (quadruplicate wells at each concentration) which inhibits cell binding by 50% or more relative to the control.
Experiments were conducted to determine the capacity of the invention compounds to interfere with the binding of cancer cells to E-selectin. The compounds are dissolved in dimethylformamide (DMF) prior to being assayed. […] After 60 minutes at 37° C., plates are washed and E-selectin chimera bound to cells is quantified by addition of pNPP substrate in 1M diethanolamine buffer containing 0.1 mg/ml MgCl2 at pH 9.8. Plates are developed in the dark and read at 405 nm. […]

[5] = test system: arachidonic acid (AA) induced ear swelling; test: arachidonic acid (AA), murine skin inflammation model (ear swelling); assay type: in vivo; details: topical, 1 mg, 90 minutes
Method: Arachidonic acid is known to induce an inflammatory response and the compounds were tested for their capacity to inhibit the response.
Briefly, the compounds at an appropriate concentration are dissolved in a suitable solvent, and applied to a rodent ear immediately following application of arachidonic acid (AA). A control of AA alone is run. About 90 minutes later a 6 mm disk of each ear is removed and weighed.
For comparison, betulinic acid was also tested. All compounds were dissolved at 50 mg/mL in CHCl3 :CH3 OH (1:1) and […] of each compound was applied two times to the ear, at about a 2 minute interval or the period of time it took for the solvent to evaporate from the ear, immediately following arachidonic acid (AA). A control of AA alone was run. Ninety minutes later a 6 mm disk of each ear was removed and weighed.

[6] = test system: P-selectin; test: inhibition of P-selectin binding to HL-60 cells; assay type: cell-based, human HL-60 cells; details: read-out: IC50, P-selectin binding to HL-60 cells; P-selectin 200 ng/ml; 4° C., 1 hour
Method: Certain of the invention compounds were tested for their capacity to inhibit P-selectin binding to HL-60 cells, and to a chemical known to bind to P-selectin, 2,3 sLex. The following materials and procedures were used.
P-Selectin Detection Solutions. Goat F(ab')2 anti-human IgG (Fc spec.)-biotin and streptavidin-AP were diluted 1:1000 in 1% BSA-TBS with 1 mM Ca^++. An Elisa assay was utilized to measure P-selectin binding to 2,3 sLex, and P-selectin was added at 300 ng/ml. An Elisa assay was also used to assay for the capacity of the invention compounds to inhibit HL-60 cell binding to P-selectin. HL-60 cells were used, and P-selectin was added at 200 ng/ml.
2,3 sLex was coated at 30 pmoles/well to Probind microtiter plates for Elisa. The glycolipid was added at 50 μl/well in 50% MeOH and allowed to evaporate overnight. Elisa plates and HL-60 assay plates were blocked with 5% BSA-TBS Ca^++ for more than an hour at room temperature. The plates were washed with TBS without Ca^++.
HL-60 cells were harvested by centrifugation, washed with TBS no Ca^++, counted, and the density adjusted to 2×10^6 /ml in 1% BSA-TBS Ca^++.
Briefly, the assays were conducted as follows. […] DMF solutions were added directly to 1% BSA/TBS-Ca for dilutions through 0.5 mM. Lower concentrations were made in serial two-fold dilutions in BSA-TBS. […]

SMILES | ED50 against P-388 lymphocytic leukemia cells [1] | inhibition of ornithine decarboxylase [2] | inhibition of enzymes involved in leukotriene biosynthesis, including 5-lipoxygenase [3] | IC50 [4] | % Inhibition of Swelling ([5]; first printed value of three separate experiments) | % Inhibition of Swelling ([5]; first printed value of three separate experiments, listed as Betulinic acid) | % Inhibition of Swelling ([5]; second printed value of three separate experiments) | % Inhibition of Swelling ([5]; third printed value of three separate experiments) | IC50 [6]
C=C(C)[C@@H]1CC[C@]2(C(=O)O)CC[C@]3(C)[C@H](CC[C@@H]4[C@@]5(C)CC[C@H](OC(C)=O)C(C)(C)[C@@H]5CC[C@]43C)[C@@H]12 [betulinic acid 3-monoacetate] | 10.5 µg/mL (≈ 21.1 µM) |  |  |  |  |  |  |  | 
C=C(C)[C@@H]1CC[C@]2(C(=O)O)CC[C@]3(C)[C@H](CC[C@@H]4[C@@]5(C)CC[C@H](O)C(C)(C)[C@@H]5CC[C@]43C)[C@@H]12 [betulinic acid] |  | known inhibitor of ornithine decarboxylase | capacity to inhibit enzymes involved in leukotriene biosynthesis, including 5-lipoxygenase | 60 µM | ~0% | 0.0% | ~12.2% | ~25.9% | ~750 µM
C=C(C)[C@@H]1CC[C@]2(C(=O)OC)CC[C@]3(C)[C@H](CC[C@@H]4[C@@]5(C)CC[C@H](O)C(C)(C)[C@@H]5CC[C@]43C)[C@@H]12 [betulinic acid methyl ester] | 6.8 µg/mL (≈ 14.4 µM) |  |  |  |  |  |  |  | 
